Experimental data reported in patent US20090307784A1, “Methods of Analysing Cell Behaviour” (Medical Research Council, priority 2005, published 2009).

Experiments:
[1] = tested on: BCC and squamous carcinoma (SCC); conditions: cited from earlier work
Gli1 = conditions: cultured keratinocytes; cited from earlier work
[2] = tested on: transit amplifying cell clones and stem cell clones in tail skin epidermis; assay: Topical treatment of tail skin of induced Ahcre^ERT R26^EYFP/wt mice, clonal fate by wholemount confocal imaging; type: in vivo, mouse; conditions: applied topically to tail skin, compared with vehicle only control
Method: The generation of Ahcre^ERT and R26^EYFP/EYFP mice has been described previously (Kemp et al (2004) Nucleic Acids Res 32, e92; Srinivas et al (2001) BMC Dev Biol 1, 4). To induce ere expression AhcreERT R26^EYFP/wt heterozygote animals were given a single intraperitoneal injection of 80 mg/kg β-napthoflavone (SIGMA) and 1 mg tamoxifen free base (MP Biomedicals) dissolved in corn oil. To prepare epidermal wholemounts, mice were killed, and then tail skin was cut into 0.5 cm sections and incubated in 5 mM EDTA/PBS for 4 h at 37 C. Epidermis was then peeled of the dermis and fixed in 4% paraformaldehyde for 1 h at room temperature. Fixed epidermal sheets were stored in PBS at 4C.
Epidermal sheets were blocked and permeabilized by incubation in PB buffer containing 0.5% BSA 0.25% Fish skin gelatin, 0.5% Triton X-100 and Goat/Donkey/Rat serum as appropriate in PBS for 1 h. Primary antibodies were diluted in PB buffer and epidermal sections incubated overnight at room temperature on rocking platform then washed 4×1 h in PBS/0.2% Tween 20. Secondary antibodies were diluted 1:250 in PB buffer, sections incubated overnight, then washed 4×1 h. Samples were rinsed in distilled water and mounted. […]

BCC = conditions: topical, irradiated patched heterozygote mice; cited from earlier work

SMILES: CC1=C(/C=C/C(C)=C/C=C/C(C)=C/CO)C(C)(C)CCC1 [retinol]
- benefit in chemoprevention of BCC and squamous carcinoma (SCC) ([1]; clinical studies): no benefit

SMILES: COc1cc(C)c(/C=C/C(C)=C/C=C/C(C)=C/C(=O)O)c(C)c1C [acitretin]
- effect on SCC and BCC development ([1]; oral, renal transplant patients): may inhibit SCC and BCC development

SMILES: CC1=C(/C=C/C(C)=C/C=C/C(C)=C/C(=O)O)C(C)(C)CCC1 [ATRA, all trans retinoic acid]
- effect on Gli1 (Gli1): inhibition of Gli1
- effect on stem cell clones [2]: expansion of stem cell clones
- effect on transit amplifying cell clones [2]: rapid depletion of transit amplifying cell clones

SMILES: CCOC(=O)c1ccc(C#Cc2ccc3c(c2)C(C)(C)CCS3)nc1 [tazarotene]
- effect on BCC ([1]; topical treatment, clinical studies): regression of BCC
- number of BCC induced by UV or ionizing radiation (BCC): substantial decrease in the number of BCC

SMILES: CC1=C(/C=C/C(C)=C/C=C/C(C)=C\C(=O)O)C(C)(C)CCC1 [isotretinoin]
- benefit in chemoprevention of BCC and squamous carcinoma (SCC) ([1]; clinical studies): no benefit
